Data from patent publication US5312816A, “Method of combatting osteoporosis in mammalian subjects, utilizing organic boron compounds” (priority 1993, dated 1994).
pIC50: −log10 of the molar value. Counter-ions that a name gives are not always drawn. Like-named read-outs stand apart in the source and are kept apart here. Blank lines part the entries; values can stand above or below the molecule they belong to.

Tests used:
[1] = system: Sprague Dawley Rats; experiment: Anti-inflammatory activity in Sprague Dawley rats; format: in vivo; settings: Table IV; 8 mg/kg I.P.
[2] = biological target: Acid phosphatase; experiment: Mouse hepatic lysosomal acid phosphatase activity; format: biochemical; settings: mouse hepatic, 60 min incubation
Description: (§1) 1. Cf1 male mouse hepatic 10% homogenates in 0.25M sucrose+0.001MEDTA,pH 7.2.
(§2) Lysosomal Enzymes - free and total [triton X-100].
1. Acid phosphatase -beta glycerol-3-phosphate, pH 5.0, released IP 720 nm.
Acid phosphatase activity -

[3] = biological target: T1, Cathepsin D (Mus musculus, UniProt P18242); experiment: Mouse hepatic lysosomal cathepsin D activity; format: biochemical; settings: mouse hepatic, 60 min incubation, read-out: Cathepsin D IC50
T1 construct: azocasein assay pH 5.0
T1 sequence (P18242 65-410): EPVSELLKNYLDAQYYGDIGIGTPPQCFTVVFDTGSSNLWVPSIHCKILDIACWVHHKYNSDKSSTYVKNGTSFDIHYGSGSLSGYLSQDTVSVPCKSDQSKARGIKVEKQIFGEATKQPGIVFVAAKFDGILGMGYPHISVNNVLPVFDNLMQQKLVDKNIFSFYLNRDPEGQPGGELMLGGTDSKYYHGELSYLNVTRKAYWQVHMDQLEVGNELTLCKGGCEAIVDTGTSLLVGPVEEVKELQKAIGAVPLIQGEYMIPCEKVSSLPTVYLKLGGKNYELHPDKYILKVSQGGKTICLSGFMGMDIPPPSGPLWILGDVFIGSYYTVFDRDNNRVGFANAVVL
Description: as §1, §2
(§3) 2. Acid Cathepsin D -azocasein-pH 5.0, hydrolytic azo-peptide produce 366 nm.
Cathepsin azo casein activity -

[4] = biological target: Aryl sulphatase; experiment: Mouse hepatic lysosomal aryl sulphatase activity; format: biochemical; settings: 60 min incubation
Description: as §1, §2
3. Aryl sulphatase- p-nitrocatechol sulfate, pH
5. 8 p-nitro-catechol product 510 nm.

[5] = biological target: T2, Prostaglandin synthetase (Bos taurus, UniProt O62664); experiment: Prostaglandin synthetase (cyclooxygenase), purified beef seminal vesicle; format: biochemical; settings: Table IX; commercial enzyme preparation; read-out: Beef Prostaglandin Cyclooxygenase IC50
T2 construct: Prostaglandin synthetase purified beef seminal vesicle; from tissue
T2 sequence (O62664 25-600): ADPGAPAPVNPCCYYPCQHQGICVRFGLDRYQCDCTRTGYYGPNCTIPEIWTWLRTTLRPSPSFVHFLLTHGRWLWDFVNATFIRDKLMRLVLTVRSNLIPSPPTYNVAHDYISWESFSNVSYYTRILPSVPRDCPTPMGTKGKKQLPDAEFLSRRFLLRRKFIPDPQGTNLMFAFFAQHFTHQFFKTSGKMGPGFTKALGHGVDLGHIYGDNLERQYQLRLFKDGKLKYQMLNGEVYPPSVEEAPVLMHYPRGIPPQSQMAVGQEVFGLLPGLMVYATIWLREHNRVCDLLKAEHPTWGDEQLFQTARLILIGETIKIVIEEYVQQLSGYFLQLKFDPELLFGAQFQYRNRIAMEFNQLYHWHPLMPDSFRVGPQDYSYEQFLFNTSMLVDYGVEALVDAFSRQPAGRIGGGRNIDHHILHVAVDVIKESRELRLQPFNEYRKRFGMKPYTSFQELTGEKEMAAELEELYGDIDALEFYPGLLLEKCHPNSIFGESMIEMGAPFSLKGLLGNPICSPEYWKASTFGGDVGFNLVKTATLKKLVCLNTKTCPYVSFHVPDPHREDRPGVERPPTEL
Description: (§4) Prostaglandin synthetase purified beef seminal vesicle ^3 H arachidonic acid (86.2 Ci/mmol), tlc separation.

[6] = system: Acid phosphatase; experiment: Mouse macrophage acid phosphatase activity; format: cell-based; settings: 60 min incubation, read-out: Acid Phosphatase IC50
[7] = system: Aryl sulphatase; experiment: Mouse macrophage aryl sulphatase activity; format: cell-based; settings: 60 min incubation, read-out: Aryl Sulphatase IC50
[8] = system: Trypsin; experiment: Mouse macrophage trypsin (BAEE) activity; format: cell-based; settings: 60 min incubation, read-out: Trypsin BAEE IC50
[9] = system: Elastase; experiment: Mouse macrophage elastase activity; format: cell-based; settings: 60 min incubation, read-out: Elastase IC50
[10] = system: Prostaglandin cyclooxygenase; experiment: Mouse macrophage prostaglandin cyclooxygenase activity; format: cell-based; settings: 60 min incubation, read-out: Prostaglandin Cyclooxygenase IC50
Description: (§5) 3. Mouse macrophages J774A.1 BALB/c
as §4

[11] = system: human osteosarcoma cells; experiment: Cytotoxicity against growth of human osteosarcoma cells; format: cell-based; settings: Table XX; human osteosarcoma (ATCC); read-out: Cytoxicity ED-50 Osteosarcoma
[12] = system: human osteoporosis fibroblastic cells; experiment: Cytotoxicity against growth of human osteoporosis fibroblastic cells; format: cell-based; settings: Fibroblast, Table XX, read-out: Cytoxicity ED-50 Osteoporosis Fibroblasts
[13] = system: Cf1 male mice; experiment: Writhing reflex, 0.6% acetic acid; format: in vivo; settings: Mus musculus, ip, Table IV
[14] = system: testes; settings: 250 mg/kg for 16 days; cited from earlier work
[15] = system: urinary excretion of calcium, magnesium, phosphorus; settings: in the diet at 3 mg/day; cited from earlier work
[16] = system: Cf1 male mice; experiment: Anti-inflammatory screen, Winter's test, 2% carrageenan hind foot; format: in vivo; settings: Table XIV; unit inferred; unit assumed
Experimental: Anti-inflammatory Screen- Cf1 - male mice-Winter's Test 2% carrageenan S.C. plantar surface of hind foot, drugs administered @8 or 10 mg/kg I.P. 2X
Winter, C.A., et al, Proc. Soc.

[17] = system: Cf1 male mice; experiment: Writhing reflex, 0.6% acetic acid; format: in vivo; settings: Table XIV; unit inferred; unit assumed
Experimental: Writhing reflex- Cf1 -male mice- 0.6% acetic acid I.P. drugs administered @20 mg/kg/ I.P. 20 min. later - the # of stretches/10 min.
Hendershot, L.C., et al, J.

[18] = system: Trypsin; experiment: Mouse hepatic trypsin activity; format: biochemical; settings: 60 min incubation
Description: as §1
1. Trypsin- N-benzoyl-L-arginine ethyl ester pH 8.0, hydrolytic product 253 nm.

[19] = biological target: Elastase; experiment: Mouse hepatic elastase activity; format: biochemical; settings: Table VI, 60 min incubation
Description: as §1
(§6) 2. Elastase- N-succinyl-L-alanyl-L-alanine-p-nitroanilide, pH 8.0, p-nitro anilide 410 nm.
Elastase activity - in vitro

[20] = biological target: T1, Cathepsin D; experiment: Mouse macrophage cathepsin D activity; format: cell-based; settings: 60 min incubation
Description: as §5, §3

[21] = biological target: Clostridium histolyticum Collagenase Type I; experiment: Commercial collagenase type I; format: biochemical; settings: Table IX; commercial enzyme preparation
Description: (§7) 3. Collagenase I, Clostridium histolyticum, bone, skin, tendon, blood vessel, dentine, GI. substrate: rat collagen, N-[propionate-2-3-^3 H] propionylated measured as dpm released.

[22] = biological target: T3, Porcine Pancreatic Elastase (Sus scrofa, UniProt P00772); experiment: Porcine pancreatic elastase activity in vitro; format: biochemical; settings: Table IX; commercial enzyme preparation
T3 construct: purchased; host or cells: porcine pancreas
T3 sequence (P00772 27-266): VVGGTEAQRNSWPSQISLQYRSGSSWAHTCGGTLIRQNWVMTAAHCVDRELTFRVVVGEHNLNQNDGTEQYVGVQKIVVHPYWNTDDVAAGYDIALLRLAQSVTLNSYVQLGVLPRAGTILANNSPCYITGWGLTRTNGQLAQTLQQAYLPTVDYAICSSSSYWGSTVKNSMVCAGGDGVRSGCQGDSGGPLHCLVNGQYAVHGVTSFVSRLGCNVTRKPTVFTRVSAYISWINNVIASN
Description: as §6

[23] = system: Cf1 male mice; experiment: Hot plate tail flick test; format: in vivo; settings: Table XIV; unit not given
[24] = biological target: T4, Pg. cyclooxygenase (Sus scrofa, UniProt A0A287ANF9); experiment: Porcine seminal vesicles Pg. cyclooxygenase; format: biochemical
T4 construct: Porcine Seminal; from tissue; the methods section prints beef seminal vesicle
T4 sequence (A0A287ANF9 25-600): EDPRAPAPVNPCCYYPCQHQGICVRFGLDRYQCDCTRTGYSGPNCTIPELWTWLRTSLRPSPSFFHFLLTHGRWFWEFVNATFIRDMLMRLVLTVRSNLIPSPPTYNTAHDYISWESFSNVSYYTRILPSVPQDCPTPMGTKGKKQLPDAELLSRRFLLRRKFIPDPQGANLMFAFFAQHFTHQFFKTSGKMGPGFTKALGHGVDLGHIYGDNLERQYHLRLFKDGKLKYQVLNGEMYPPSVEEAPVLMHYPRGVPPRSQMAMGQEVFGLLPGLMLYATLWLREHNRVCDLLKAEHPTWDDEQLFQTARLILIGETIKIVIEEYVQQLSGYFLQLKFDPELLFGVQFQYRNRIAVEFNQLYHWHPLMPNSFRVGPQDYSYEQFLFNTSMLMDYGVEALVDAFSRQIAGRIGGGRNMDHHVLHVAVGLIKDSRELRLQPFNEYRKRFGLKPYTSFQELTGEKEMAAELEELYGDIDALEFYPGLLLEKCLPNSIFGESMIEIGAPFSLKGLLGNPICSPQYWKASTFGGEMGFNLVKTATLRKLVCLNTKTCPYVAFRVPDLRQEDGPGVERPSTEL

[25] = biological target: Commercial Collagenase; experiment: Commercial collagenase (type not stated); format: biochemical; settings: Table XVI; 60 min incubation
Description: as §7
4. Collagenase II, Clostridium histolyticum, cartilage collagen.

[26] = Table VII, mouse macrophage cultured cells

pIC50 ([2]; Table V): 5.37
pIC50 ([3]; Table V): 5.44
pIC50 ([4]; Table V): 5.23
pIC50 [5]: 5.89
pIC50 [6, 26]: 5.40
pIC50 [7, 26]: 5.86
pIC50 ([8]; Table VIII, mouse macrophages): 5.67
pIC50 ([9]; Table VIII, mouse macrophages): 5.83
pIC50 ([10]; Table VIII, mouse macrophages): 5.79
SMILES: C[N+](C)(C)[BH2-]C(=O)NO [Compound 14, Trimethylamine-boranecarbohydroxamic acid tetraphenylborate salt.]
Anti-Inflammatory Activity Sprague Dawley Rats [1]: 60 % Control
IC50 [11]: 1.14 µg/mL
IC50 [12]: 1.21 µg/mL
response vs control in vivo at 8 mg/kg ([13]; 8 mg/kg I.P.): 50%

SMILES: OB(O)O [boric acid]
effect on testes [14]: severe degeneration of the testes with giant cell formation, pyknosis and exfoliation
urinary excretion of calcium, magnesium and perhaps phosphorus [15]: blocks the urinary excretion of calcium, magnesium and perhaps phosphorus

SMILES: C[NH+](C)[BH2-]C(=O)O [Compound 23, Dimethylamine-carboxyborane, sodium salt]
Anti-Inflammation Cf1 Mice [16]: 68.5%
Anti-Inflammatory Activity Sprague Dawley Rats [1]: 55 % Control
Writhing Reflex Mice [17]: 70.4%
pIC50 ([2]; Table V): 5.10
pIC50 ([2]; Table XV): 5.45
pIC50 ([3]; Table V): 5.42
pIC50 ([3]; Table XV): 5.12
pIC50 ([4]; Table XV): 5.55
pIC50 [5]: 5.49
pIC50 ([18]; Table VI, mouse hepatic, read-out: Trypsin IC50): 6.08
pIC50 ([18]; Table XVI, read-out: Mouse Hepatic Trypsin IC50): 5.00
pIC50 [19]: 4.59
pIC50 ([20]; Table VII, mouse macrophage cultured cells, DMEM +10% FCS +P/S, read-out: Cathepsin D IC50): 5.19
pIC50 ([20]; Table XVII, mouse macrophage, read-out: Cathepsin D pH 5.0 IC50): 5.64
pIC50 [6, 26]: 5.32
pIC50 ([6]; Table XVII, mouse macrophage): 5.85
pIC50 ([7]; Table XVII, mouse macrophage): 5.80
pIC50 ([8]; Table VIII, mouse macrophages): 5.51
pIC50 ([8]; Table XVIII, mouse macrophage): 5.66
pIC50 ([9]; Table VIII, mouse macrophages): 5.57
pIC50 ([9]; Table XVIII, mouse macrophage): 5.20
pIC50 ([10]; Table VIII, mouse macrophages): 5.54
pIC50 ([10]; Table XVIII, mouse macrophage): 5.68
pIC50 [21]: 3.18
pIC50 [22]: 4.43
Tail Flick Mice [23]: 156
pIC50 [24]: 5.51
pIC50 [25]: 3.30
response vs control in vivo at 20 mg/kg [13]: 2%
